What was measured:
Brassica napus = test: Drought stress test on potted crop plants, spray application, visual scoring against stressed control plants; assay type: in vivo; set-up: key: 0: no positive effect; +: slight positive effect; ++: clear positive effect; +++: strong positive effect; settings: mean of at least three repeats
Protocol: (§1) Seeds of monocotyledonous and dicotyledonous crop plants were sown in sandy loam in plastic pots, covered with soil or sand and cultivated in a greenhouse under good growth conditions. The test plants are treated at the early leaf stage (BBCH10-BBCH13). To assure uniform water supply before commencement of stress, the potted plants were supplied with water by dam irrigation prior to substance application. The inventive compounds were first formulated as wettable powders (WP) or dissolved in a solvent mixture. The further dilution was effected with water supplemented with 0.2% wetting agent (e.g. agrotin). The finished spray liquor was sprayed onto the green parts of the plant at an equivalent water application rate of 600 I/ha. Substance application was followed immediately by stress treatment of the plants. Drought stress was induced by gradual drying out under the following conditions: “Day”: 14 hours with illumination at […]. “Night”: 10 hours without illumination at […]. The duration of the respective stress phases was guided mainly by the condition of the stressed control plants. It was ended (by re-irrigating and transfer to a greenhouse with good growth conditions) as soon as irreversible damage was observed on the stressed control plants. The end of the stress phase was followed by an about 4-7-day recovery phase, during which the plants were once again kept under good growth conditions in a greenhouse. The duration of the recovery phase was guided mainly by when the trial plants had attained a state which enabled visual scoring of potential effects, and was therefore variable. Once this juncture had been reached, the appearance of the plants treated with test substances was recorded in comparison to the stressed control plants by the following categories: • 0 no positive effect • + slight positive effect • ++ clear positive effect • +++ strong positive effect In order to rule out any influence on the effects observed by any fungicidal or insecticidal action of the test compounds, it was additionally ensured that the tests proceeded without fungal infection or insect infestation. The values reported in tables A-1 and A-2 below are mean values of the results from at least three repeats. Effects of selected compounds of the general formula (I) under drought stress according to the following tables A-1 and A-2: In the above tables: BRSNS =Brassica napus TRZAS =Triticum aestivum

Triticum aestivum = test: as above; assay type: in vivo; set-up: key: 0: no positive effect; +: slight positive effect; ++: clear positive effect; +++: strong positive effect; settings: mean of at least three repeats
Protocol: as §1

[1] = target: T1, phosphatase ABI1 via the co-regulator RCAR11/PYR1 (Arabidopsis thaliana, UniProt O49686+P49597); test: In vitro assay: inhibition of ABI1 dephosphorylation of 4-methylumbelliferyl phosphate (MUP), fluorescence; assay type: biochemical; settings: concentration of 5 mM of the substance in DMSO and water, 35° C., 20 minutes
T1 sequence (O49686 1-191): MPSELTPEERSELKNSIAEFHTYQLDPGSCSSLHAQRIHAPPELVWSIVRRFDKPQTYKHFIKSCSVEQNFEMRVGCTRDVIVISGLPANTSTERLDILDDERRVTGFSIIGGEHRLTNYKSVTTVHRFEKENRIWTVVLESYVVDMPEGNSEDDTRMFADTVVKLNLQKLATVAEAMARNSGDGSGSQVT
T1 sequence (P49597 1-434): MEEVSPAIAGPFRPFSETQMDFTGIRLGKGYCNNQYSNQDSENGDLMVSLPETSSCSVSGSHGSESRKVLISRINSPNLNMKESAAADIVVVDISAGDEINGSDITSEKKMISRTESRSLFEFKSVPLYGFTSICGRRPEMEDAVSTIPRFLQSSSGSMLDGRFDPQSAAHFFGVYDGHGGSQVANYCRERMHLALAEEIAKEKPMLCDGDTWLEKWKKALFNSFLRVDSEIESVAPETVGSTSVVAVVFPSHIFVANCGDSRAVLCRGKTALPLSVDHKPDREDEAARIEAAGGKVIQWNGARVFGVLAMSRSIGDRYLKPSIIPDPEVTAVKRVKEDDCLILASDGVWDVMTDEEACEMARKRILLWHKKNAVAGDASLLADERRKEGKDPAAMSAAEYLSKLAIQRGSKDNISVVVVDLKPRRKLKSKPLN
Text: Effects of the phytohormone abscisic acid (ABA) on the behavior of plants under abiotic stress and the mechanism of action of ABA are described in the literature (cf. Abrams et al., WO97/23441, Park et al. Science, 2009, 324, 1068; Grill et al. Science, 2009, 324, 1064; Tanokura et al. Biophysics, 2011, 7, 123; Schroeder et al. Plant J. 2010, 61, 290). Therefore, it is possible with the aid of a suitable in vitro test system to derive a correlation between the action of ABA and the stress response of a plant under abiotic stress. In the event of water deficiency (drought stress), plants form the phytohormone abscisic acid (ABA). This binds, along with a co-regulator (Regulatory Component of ABA-Receptor=RCAR according to Grill et al. Science, 2009, 324, 1064 or PYR/PYL according to Cutler et al. Science, 2009, 324, 1068), to a phosphatase (e.g. ABI1, a type 2C protein phosphatase, also abbreviated to PP2C) and inhibits its activity. As a result, a “downstream” kinase (e.g. SnRK2) is no longer dephosphorylated. This kinase, which is thus active, via phosphorylation of transcription factors (e.g. AREB/ABF, cf. Yoshida et al Plant J. 2010, 61, 672), switches on a genetic protection program to increase drought stress tolerance. The assay described hereinafter utilizes the inhibition of the phosphatase ABI1 via the co-regulator RCAR11/PYR1 aus Arabidopsis thaliana. For the determination of activity, the dephosphorylation of 4-methylumbelliferyl phosphate (MUP) was measured at 460 nm. The in vitro assay was conducted in Greiner 384-well PS microplates F-well, using two controls: a) 0.5% dimethyl sulfoxide (DMSO) and b) 5 μM abscisic acid (ABA). The assay described here was generally conducted with substance concentrations of the appropriate chemical test substances in a concentration range of 0.1 μM to 100 μM in a solution of DMSO and water. The substance solution thus obtained, if necessary, was stirred with esterase from porcine liver (EC 3.1.1.1) at room temperature for 3 h and centrifuged at 4000 rpm for 30 min. A total volume of 45 μl was introduced into each cavity of the microplate, having the following composition: • 1) 5 μl of substance solution, i.e. a) DMSO 5% or b) abscisic acid solution or c) the corresponding example compound of the general formula (I) dissolved in 5% DMSO. • 2) 20 μl of enzyme buffer mix, composed of a) 40% by vol. of enzyme buffer (10 ml contain equal proportions by volume of 500 mM Tris-HCl pH 8, 500 mM NaCl, 3.33 mM MnCl2, 40 mM dithiothreitol (DTT)), b) 4% by vol. of ABI1 dilution (protein stock solution was diluted so as to give, after addition, a final concentration in the assay of 0.15 μg ABI1/well), c) 4% by vol. of RCAR11 dilution (enzyme stock was diluted so as to give, on addition of the dilution to the enzyme buffer mix, a final concentration in the assay of 0.30 μg enzyme/well), d) 5% by vol. of Tween20 (1%), e) 47% by vol. H2O bi-dist. • 3) 20 μl of substrate mix, composed of a) 10% by vol. of 500 mM Tris-HCl pH 8, b) 10% by vol. of 500 mM NaCl, c) 10% by vol. of 3.33 mM MnCl2, d) 5% by vol. of 25 mM MUP, 5% by vol. of Tween20 (1%), 60% by vol. of H2O bi-dist.
Enzyme buffer mix and substrate mix were made up 5 minutes prior to the addition and warmed to a temperature of 35° C. On completion of pipetting of all the solutions and on completion of mixing, the plate was incubated at 35° C. for 20 minutes. Finally, a relative fluorescence measurement was made at 35° C. with a BMG Labtech “POLARstar Optima” microplate reader using a 340/10 nm excitation filter and a 460 nm emission filter. The efficacy of the compounds of the general formula (I) is reported in the table which follows using abscisic acid […] as comparative substance (no. 38) according to the following classification: ++++(inhibition ≧90%), +++(90% >inhibition ≧70%), ++(70% >inhibition ≧50%), +(50% >inhibition ≧30%). […]

## CC1(N2C(=O)CCc3cc(NS(=O)(=O)Cc4ccc(Cl)cc4)ccc32)CC1 [A1-165, 1-(4-Chlorophenyl)-N-[1-(1-methylcyclopropyl)-2-oxo-1,2,3,4-tetrahydroquinolin-6-yl]methanesulfonamide]
Brassica napus; dosage 250 g/ha
  Effect (BRSNS): ++
Triticum aestivum; dosage 250 g/ha
  Effect (TRZAS): +
[1]
  ABI1 inhibition: ++++ (inhibition ≧90%)

## CC1(N2C(=O)CCc3cc(NS(=O)(=O)Cc4cccc(Cl)c4)ccc32)CC1 [A1-166]
Brassica napus; dosage 250 g/ha
  Effect (BRSNS): ++
[1]
  ABI1 inhibition: +++ (90% >inhibition ≧70%)

## CC1(N2C(=O)CCc3cc(NS(=O)(=O)Cc4ccc(C#N)cc4)ccc32)CC1 [A1-181]
Brassica napus; dosage 250 g/ha
  Effect (BRSNS): ++
Triticum aestivum; dosage 250 g/ha
  Effect (TRZAS): +
[1]
  ABI1 inhibition: ++++ (inhibition ≧90%)

## O=C1CCc2cc(NS(=O)(=O)Cc3ccc(F)cc3)ccc2N1C1(C2CC2)CC1 [A3-158]
Triticum aestivum; dosage 250 g/ha
  Effect (TRZAS): +
[1]
  ABI1 inhibition: ++++ (inhibition ≧90%)

## O=C1CCc2cc(NS(=O)(=O)Cc3ccc(Cl)cc3)ccc2N1C1(C2CC2)CC1 [A3-165]
Triticum aestivum; dosage 250 g/ha
  Effect (TRZAS): +
[1]
  ABI1 inhibition: ++++ (inhibition ≧90%)

## N#Cc1ccc(CS(=O)(=O)Nc2ccc3c(c2)CCC(=O)N3C2(C3CC3)CC2)cc1 [A3-181]
Triticum aestivum; dosage 25 g/ha
  Effect (TRZAS): +
[1]
  ABI1 inhibition: ++++ (inhibition ≧90%)

## N#Cc1ccc(S(=O)(=O)Nc2ccc3c(c2)CCC(=O)N3C2CC2C2CC2)cc1 (centres unmarked) [A16-45]
Brassica napus; dosage 25 g/ha
  Effect (BRSNS): ++
Triticum aestivum; dosage 25 g/ha
  Effect (TRZAS): +

## CC1CC(N2C(=O)CCc3cc(NS(=O)(=O)Cc4ccc(F)cc4)ccc32)C1 (centres unmarked) [A26-158]
Brassica napus; dosage 25 g/ha
  Effect (BRSNS): +
[1]
  ABI1 inhibition: ++++ (inhibition ≧90%)

## N#Cc1ccc(S(=O)(=O)Nc2ccc3c(c2)CCC(=O)N3C23CC(C2)C3)cc1 [A30-45]
Triticum aestivum; dosage 250 g/ha
  Effect (TRZAS): +

## Cc1cccc(CS(=O)(=O)Nc2ccc3c(c2)CCC(=O)N3C23CC(C2)C3)c1 [A30-153]
Brassica napus; dosage 250 g/ha
  Effect (BRSNS): +
[1]
  ABI1 inhibition: +++ (90% >inhibition ≧70%)

## O=C1CCc2cc(NS(=O)(=O)Cc3ccc(F)cc3)ccc2N1C12CC(C1)C2 [A30-158]
Triticum aestivum; dosage 25 g/ha
  Effect (TRZAS): +
[1]
  ABI1 inhibition: ++++ (inhibition ≧90%)

## O=C1CCc2cc(NS(=O)(=O)Cc3ccc(Cl)cc3)ccc2N1C12CC(C1)C2 [A30-165]
Triticum aestivum; dosage 250 g/ha
  Effect (TRZAS): ++
[1]
  ABI1 inhibition: ++++ (inhibition ≧90%)

## O=C1CCc2cc(NS(=O)(=O)Cc3ccc(Cl)cc3)ccc2N1C1CC1C(F)(F)F (centres unmarked) [A37-165]
Triticum aestivum; dosage 250 g/ha
  Effect (TRZAS): ++
[1]
  ABI1 inhibition: +++ (90% >inhibition ≧70%)

## CC1CCC1N1C(=O)CCc2cc(NS(=O)(=O)c3ccc(C#N)cc3)ccc21 (centres unmarked) [A38-45]
Triticum aestivum; dosage 250 g/ha
  Effect (TRZAS): +

## N#Cc1ccc(S(=O)(=O)Nc2ccc3c(c2)CCC(=O)N3C2CC(F)(F)C2)cc1 [A39-45]
Triticum aestivum; dosage 250 g/ha
  Effect (TRZAS): ++

Source: US20180020662A1, “Substituted 1-cycloalkyl-2-oxotetrahydroquinolin-6-ylsulfonamides or salts thereof and use thereof to increase stress tolerance in plants” (BAYER CROPSCIENCE AKTIENGESELLSCHAFT, priority 2015, published 2018)
